This passage reports inhibition results from patent US5530126A, “Process for the preparation of substituted 6-(pyrazol-3yl)-1,4-benzoxazin-3-ones” (Monsanto Company, priority 1994, dated 1996).

As usually defined, the inhibition is how much of the control response was suppressed.

What all share (type): in vivo
For assay [1], the system named is Seedling johnsongrass. The experiment in a line: Post-emergence herbicide test. Conditions: Sorghum halepense, read-out: % plant inhibition (Sejg); for inhibition at 11210 g/ha: 11.21 kg/ha. The method, boiled down:
(§1)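 Soil pans, sub-irrigated; plants sprayed at 2–3 wk; 170.3 kPa atomizer; 1870 L/Ha; ~0.4% v/v emulsifier; % inhibition vs control ~11 d post-spray, sometimes ~25 d.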

Assay [2] deals with Cocklebur. As to the kind of experiment: Post-emergence herbicide test. The settings on record: Xanthium strumarium, read-out: % plant inhibition (Cobu); for inhibition at 11210 g/ha: 11.21 kg/ha. The method in brief:
as §1

The test system of assay [3] is Velvetleaf. As to the kind of experiment: Post-emergence herbicide test. Conditions: Abutilon theophrasti, read-out: % plant inhibition (Vele); for inhibition at 11210 g/ha: 11.21 kg/ha. The method, boiled down:
as §1

In assay [4] the test system is Yellow nutsedge. As to the kind of experiment: Post-emergence herbicide test. Conditions: Cyperus, read-out: % plant inhibition (Yens); for inhibition at 11210 g/ha: 11.21 kg/ha. The method, boiled down: as §1
The subject of assay [5] is Wild buckwheat. As to the kind of experiment: Post-emergence herbicide test. Conditions: Fallopia convolvulus, read-out: % plant inhibition (Wibw); for inhibition at 11210 g/ha: 11.21 kg/ha. The method in brief: as §1
In assay [6] the test system is Indian Mustard. As to the kind of experiment: Post-emergence herbicide test. Conditions: Brassica juncea, read-out: % plant inhibition (Inmu); for inhibition at 11210 g/ha: 11.21 kg/ha. The method in brief: as §1
For assay [7], the system named is Annual bluegrass. As to the kind of experiment: Post-emergence herbicide test. Conditions: read-out: % plant inhibition (Anbg); for inhibition at 11210 g/ha: 11.21 kg/ha. The method in brief:
as §1

Assay [8] relates to Morningglory. As to the kind of experiment: Post-emergence herbicide test. Conditions: Ipomoea, read-out: % plant inhibition (Mogl); for inhibition at 11210 g/ha: 11.21 kg/ha. The method in brief:
as §1

For assay [9], the system named is Downy Brome. As to the kind of experiment: Post-emergence herbicide test. The settings on record: Bromus tectorum, read-out: % plant inhibition (Dobr); for inhibition at 11210 g/ha: 11.21 kg/ha. The method, boiled down: as §1
The test system of assay [10] is Barnyardgrass. As to the kind of experiment: Post-emergence herbicide test. The settings on record: Echinochloa crus-galli, read-out: % plant inhibition (Bygr); for inhibition at 11210 g/ha: 11.21 kg/ha. The method, boiled down:
as §1

Assay [11] concerns Seedling johnsongrass. The experiment in a line: Pre-emergence herbicide test. Conditions: Sorghum halepense, read-out: % plant inhibition (Sejg); for inhibition at 11210 g/ha: 11.21 kg/ha. The method, boiled down: (§2)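 Known dose of active, dissolved or suspended in acetone or water, delivered onto seed bed prior to emergence and buried under untreated topsoil. Greenhouse incubation with watering from below. Percentage inhibition rated 10-14 days after seeding.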

Assay [12] relates to Cocklebur. The experiment in a line: Pre-emergence herbicide test. The settings on record: Xanthium strumarium, read-out: % plant inhibition (Cobu); for inhibition at 11210 g/ha: 11.21 kg/ha. The method, boiled down:
as §2

In assay [13] the test system is Velvetleaf. As to the kind of experiment: Pre-emergence herbicide test. Conditions: Abutilon theophrasti, read-out: % plant inhibition (Vele); for inhibition at 11210 g/ha: 11.21 kg/ha. The method, boiled down:
as §2

Assay [14] concerns Yellow nutsedge. As to the kind of experiment: Pre-emergence herbicide test. Conditions: Cyperus, read-out: % plant inhibition (Yens); for inhibition at 11210 g/ha: 11.21 kg/ha. The method, boiled down: as §2
In assay [15] the test system is Wild buckwheat. As to the kind of experiment: Pre-emergence herbicide test. The settings on record: Fallopia convolvulus, read-out: % plant inhibition (Wibw); for inhibition at 11210 g/ha: 11.21 kg/ha. The method in brief:
as §2

Assay [16] relates to Indian Mustard. As to the kind of experiment: Pre-emergence herbicide test. The settings on record: Brassica juncea, read-out: % plant inhibition (Inmu); for inhibition at 11210 g/ha: 11.21 kg/ha. The method in brief: as §2
Assay [17] deals with Annual bluegrass. As to the kind of experiment: Pre-emergence herbicide test. Conditions: read-out: % plant inhibition (Anbg); for inhibition at 11210 g/ha: 11.21 kg/ha. The method, boiled down: as §2
Assay [18] deals with Morningglory. As to the kind of experiment: Pre-emergence herbicide test. Conditions: Ipomoea, read-out: % plant inhibition (Mogl); for inhibition at 11210 g/ha: 11.21 kg/ha. The method, boiled down: as §2
For assay [19], the system named is Downy Brome. As to the kind of experiment: Pre-emergence herbicide test. The settings on record: Bromus tectorum, read-out: % plant inhibition (Dobr); for inhibition at 11210 g/ha: 11.21 kg/ha. The method, boiled down: as §2
Assay [20] has as its system Barnyardgrass. The experiment in a line: Pre-emergence herbicide test. The settings on record: Echinochloa crus-galli, read-out: % plant inhibition (Bygr); for inhibition at 11210 g/ha: 11.21 kg/ha. The method in brief:
as §2

Consider `Cn1nc(C(F)F)c(Cl)c1-c1cc(F)ccc1F` [Compound 62], for which the inhibition at 11210 g/ha with Seedling johnsongrass [1] was 0%; in the assay with Cocklebur [2] it was 0%; in the assay on Velvetleaf [3], 10%; in the assay on Yellow nutsedge [4], 0%; in the assay on Wild buckwheat [5] it was 0%; in the assay on Indian Mustard [6], 0%. In addition, the inhibition at 11210 g/ha came to 0% with Annual bluegrass [7]; 0% with Morningglory [8]; 0% in the assay on Downy Brome [9]; 0% with Barnyardgrass [10]; 30% with Seedling johnsongrass [11]; 0% with Cocklebur [12]. The inhibition at 11210 g/ha in the assay with Velvetleaf [13] was 60%; with Yellow nutsedge [14], 0%; with Wild buckwheat [15], 20%; with Indian Mustard [16], 20%; in the assay with Annual bluegrass [17] it was 0%; with Morningglory [18] it was 30%. The inhibition at 11210 g/ha in the assay with Downy Brome [19] was 0%; with Barnyardgrass [20], 20%.
Turning to `Cn1nc(C(F)(F)F)c(Cl)c1-c1cc([N+](=O)[O-])c(F)cc1F` [Compound 77], the inhibition at 11210 g/ha in the assay on Seedling johnsongrass [1] is 20%; with Cocklebur [2] it was 20%; with Velvetleaf [3] it was 30%; with Yellow nutsedge [4], 0%; in the assay on Wild buckwheat [5], 60%; with Indian Mustard [6], 60%. Moreover, the inhibition at 11210 g/ha is 20% in the assay on Annual bluegrass [7]; 10% in the assay on Morningglory [8]; 0% with Downy Brome [9]; 20% in the assay on Barnyardgrass [10]; 40% in the assay on Seedling johnsongrass [11]; 0% in the assay on Cocklebur [12]. For the same compound, the inhibition at 11210 g/ha in the assay with Velvetleaf [13] worked out at 30%; in the assay with Yellow nutsedge [14] it was 0%; in the assay with Wild buckwheat [15], 20%; with Indian Mustard [16], 30%; in the assay with Annual bluegrass [17], 80%; with Morningglory [18] it was 0%. Moreover, the inhibition at 11210 g/ha came out at 10% with Downy Brome [19] and 30% in the assay with Barnyardgrass [20].
As for `Cn1nc(-c2cc(Oc3ccc(C(F)(F)F)cc3Cl)c(Cl)cc2F)c(Cl)c1C(F)(F)F` [Compound 203], the inhibition at 11210 g/ha in the assay on Seedling johnsongrass [1] turned out to be 60%; in the assay with Cocklebur [2] it was 60%; in the assay with Velvetleaf [3] it was 100%; in the assay with Yellow nutsedge [4], 0%; in the assay with Wild buckwheat [5] it was 90%; in the assay with Indian Mustard [6], 60%. The inhibition at 11210 g/ha in the assay on Annual bluegrass [7] is 20%; with Morningglory [8], 60%; in the assay on Downy Brome [9], 30%; in the assay with Barnyardgrass [10] it was 50%; in the assay on Seedling johnsongrass [11], 20%; in the assay with Cocklebur [12] it was 20%. The inhibition at 11210 g/ha was found to be 0% in the assay with Velvetleaf [13]; 0% in the assay on Yellow nutsedge [14]; 0% with Wild buckwheat [15]; 0% with Indian Mustard [16]; 0% in the assay with Annual bluegrass [17]; 10% in the assay on Morningglory [18]. Also, the inhibition at 11210 g/ha with Downy Brome [19] turned out to be 10%; in the assay on Barnyardgrass [20], 0%.
For the compound `CCOCc1cc(-c2nn(C)c(C(F)(F)F)c2Cl)c(F)cc1Cl` [Compound 118], the inhibition at 1120 g/ha worked out at 30% in the assay with Seedling johnsongrass [1] (1.12 kg/ha); 80% in the assay with Cocklebur [2] (1.12 kg/ha); 90% in the assay with Velvetleaf [3] (1.12 kg/ha); 30% in the assay with Yellow nutsedge [4] (1.12 kg/ha); 100% with Wild buckwheat [5] (1.12 kg/ha); 30% in the assay with Indian Mustard [6] (1.12 kg/ha). The inhibition at 1120 g/ha in the assay with Annual bluegrass [7] (1.12 kg/ha) was 30%; in the assay on Morningglory [8] (1.12 kg/ha), 60%; with Downy Brome [9] (1.12 kg/ha) it was 20%; with Barnyardgrass [10] (1.12 kg/ha), 30%; in the assay with Seedling johnsongrass [11] (1.12 kg/ha) it was 90%; in the assay with Cocklebur [12] (1.12 kg/ha), 80%. Besides, the inhibition at 1120 g/ha came out at 90% in the assay with Velvetleaf [13] (1.12 kg/ha); 0% in the assay on Yellow nutsedge [14] (1.12 kg/ha); 100% in the assay with Wild buckwheat [15] (1.12 kg/ha); 100% in the assay with Indian Mustard [16] (1.12 kg/ha); 100% in the assay on Annual bluegrass [17] (1.12 kg/ha); 100% in the assay with Morningglory [18] (1.12 kg/ha). Also, the inhibition at 1120 g/ha in the assay with Downy Brome [19] (1.12 kg/ha) was 100%; in the assay with Barnyardgrass [20] (1.12 kg/ha) it was 90%.
On to `Cc1cc(-c2c(Cl)c(C(F)F)nn2C)c(F)cc1Cl` [Compound 64], for which the inhibition at 11210 g/ha in the assay on Seedling johnsongrass [1] amounted to 20%; in the assay on Cocklebur [2] it was 20%; in the assay on Velvetleaf [3], 60%; in the assay on Yellow nutsedge [4] it was 0%; in the assay on Wild buckwheat [5] it was 80%; in the assay on Indian Mustard [6] it was 20%. Besides, the inhibition at 11210 g/ha with Annual bluegrass [7] was found to be 20%; in the assay on Morningglory [8], 60%; in the assay on Downy Brome [9] it was 0%; in the assay on Barnyardgrass [10], 30%; with Seedling johnsongrass [11], 80%; in the assay on Cocklebur [12], 10%. In addition, the inhibition at 11210 g/ha came out at 100% in the assay on Velvetleaf [13]; 10% with Yellow nutsedge [14]; 100% in the assay with Wild buckwheat [15]; 100% in the assay on Indian Mustard [16]; 90% in the assay on Annual bluegrass [17]; 80% in the assay with Morningglory [18]. Also, the inhibition at 11210 g/ha in the assay on Downy Brome [19] is 90%; in the assay on Barnyardgrass [20], 80%.
Consider `Cn1nc(-c2ccc([N+](=O)[O-])cc2)c(Cl)c1C(F)(F)F` [Compound 81], for which the inhibition at 11210 g/ha in the assay on Seedling johnsongrass [1] is 70%; in the assay with Cocklebur [2], 40%; in the assay with Velvetleaf [3], 80%; in the assay on Yellow nutsedge [4], 50%; in the assay on Wild buckwheat [5], 90%; with Indian Mustard [6], 10%. Also, the inhibition at 11210 g/ha with Annual bluegrass [7] was 0%; with Morningglory [8], 60%; in the assay on Downy Brome [9] it was 10%; in the assay on Barnyardgrass [10], 70%; with Seedling johnsongrass [11] it was 90%; with Cocklebur [12], 20%. The inhibition at 11210 g/ha in the assay on Velvetleaf [13] came to 90%; with Yellow nutsedge [14] it was 0%; with Wild buckwheat [15], 100%; with Indian Mustard [16], 20%; in the assay with Annual bluegrass [17] it was 60%; in the assay with Morningglory [18], 30%. Also, the inhibition at 11210 g/ha with Downy Brome [19] was found to be 80%; with Barnyardgrass [20] it was 60%.
For the compound `C#CCOc1cc(-c2nn(C)c(C(F)(F)Cl)c2Cl)c(F)cc1Cl` [Compound 303], the inhibition at 11210 g/ha came out at 100% in the assay on Seedling johnsongrass [1]; 100% in the assay with Cocklebur [2]; 100% with Velvetleaf [3]; 70% in the assay with Yellow nutsedge [4]; 100% with Wild buckwheat [5]; 100% in the assay with Indian Mustard [6]. The inhibition at 11210 g/ha with Annual bluegrass [7], in the assay on Morningglory [8], in the assay with Downy Brome [9], with Barnyardgrass [10], in the assay with Seedling johnsongrass [11] and with Cocklebur [12] was 100% in each case. Besides, the inhibition at 11210 g/ha with Velvetleaf [13] was 100%; in the assay on Yellow nutsedge [14], 0%; in the assay on Wild buckwheat [15] it was 100%; in the assay on Indian Mustard [16], 100%; in the assay with Annual bluegrass [17], 100%; in the assay on Morningglory [18] it was 100%. Moreover, the inhibition at 11210 g/ha with Downy Brome [19] and with Barnyardgrass [20] was 100% each time.
